PMC11470957, “Principles of paralog-specific targeted protein degradation engaging the C-degron E3 KLHDC2” (Nature Communications, 2024)
“And” between values parts separate entries of the source, which are not always exact repeats. Equal values may be shown once. Blank lines part the entries; values can stand above or below the compound they belong to.

Columns and labels:
KLHDC2^SBD [1] = biological target: T1, KLHDC2^SBD (Homo sapiens, UniProt Q9Y2U9); test: TR-FRET assay, competition with di-Gly degron peptide binding to KLHDC2^SBD; parameters: KLHDC2^SBD (15-361) and its Avi-tagged counterpart were expressed in E. coli Rosetta2 cells; 6XHis-MBP (N, cleaved yes); made in house; host or cells: E. coli Rosetta2; settings: inhibition of KLHDC2^SBD binding to a di-Gly degron peptide; read-out: TR-FRET IC50
T1 sequence (Q9Y2U9 15-361): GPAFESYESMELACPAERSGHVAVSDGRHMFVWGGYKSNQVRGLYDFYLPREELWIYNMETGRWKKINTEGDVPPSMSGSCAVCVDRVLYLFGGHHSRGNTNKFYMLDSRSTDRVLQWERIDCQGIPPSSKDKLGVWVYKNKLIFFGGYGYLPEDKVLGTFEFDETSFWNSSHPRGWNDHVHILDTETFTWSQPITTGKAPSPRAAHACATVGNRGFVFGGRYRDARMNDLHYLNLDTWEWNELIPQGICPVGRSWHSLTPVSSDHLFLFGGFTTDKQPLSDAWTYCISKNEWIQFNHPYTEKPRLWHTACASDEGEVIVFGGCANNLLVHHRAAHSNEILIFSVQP
Protocol: TR-FRET assays were carried out in black 384-well microtiter plates at a final volume of 20 μL per well. An assay cocktail was prepared as a mixture of 50 nM Biotin-KLHDC2 SBD, 20 nM AlexaFluor488-RIC8B peptide, 2.5 nM Tb-Streptavidin (ThermoFisher) in assay buffer (25 mM HEPES, 100 mM NaCl, 0.1% Triton X-100, 0.5 mM DTT, pH 7.5). The assay cocktail was incubated for thirty-minutes at room temperature and 20 μl distributed to assay plates. Molecules were distributed to the plates at the indicated concentration and the assay mixture was incubated for 1 h at room temperature prior to measuring the TR-FRET signal with a PHERAstar FS plate reader (BMG Labtech) equipped with modules for excitation at 337 nm and emissions at 490 and 520 nm. The integration start was set to 100 µs and the integration time to 200 µs. The number of flashes was fixed at 100. The ratio of 520/490 was used as TR-FRET signal in calculations. Assay endpoints were normalized to 100% (buffer only) and used for curve fitting in Prism.

KLHDC2^SBD [2] = biological target: T1, KLHDC2^SBD; test: Thermal shift assay (Sypro Orange) probing stabilization of KLHDC2^SBD; format: binding; parameters: KLHDC2^SBD (15-361) and its Avi-tagged counterpart were expressed in E. coli Rosetta2 cells; 6XHis-MBP (N, cleaved yes); made in house; host or cells: E. coli Rosetta2; settings: KLHDC2^SBD; ligand concentration not given
Protocol: In an attempt to identify non-peptide ligands that target KLHDC2’s substrate binding domain (SBD), we developed a thermal shift assay probing for stabilization of KLHDC2^SBD upon ligand addition. […] We utilized the thermal shift assay to screen ~ 9,000 molecules from a diverse collection of lead-like molecules (Figs. 1b, S1a, Supplementary Table 1).
Experimental compounds (200 nl each) were dispensed into a 384-well PCR plate using the Labcyte ECHO 655 T. The assay solution, comprising 0.5 μM KLHDC2, 25 mM HEPES, 200 mM NaCl, and 5% Sypro Orange at pH 7.5, was added to achieve a final volume of 20 μl. Negative control wells contained only DMSO, while positive control wells contained a di-Gly substrate peptide derived from SELK. Fluorescence measurements of Sypro Orange in each sample were taken using a Quantstudio 5 or Quantstudio 6, with temperatures ranging from 23 to 75 °C at a rate of 0.05 °C/s. Data analysis involved calculating thermal stability using the Boltzmann and first derivative minima equations in Thermo Scientific Protein Thermal Shift software v1.4. The resulting data were uploaded to CDD Vault for further analysis.
The 8892-compound lead-like one library was screened for its ability to stabilize KLHDC2 using a sypro orange-based thermal stability single-point assay.
Supplementary Ta b l e 1. Small molecule screening data
Category Parameter Description
Assay Ty p e o f assay Thermal Stability Screen
Primary measurement RFU of Sypro Orange
Key reagents Sypro Orange
Assay protocol Experimental compounds (200nl each) were dispensed into […]
a 384-well PCR plate using the Labcyte ECHO 655T. The […]
assay solution, comprising 0.5µM KLHDC2, 25mM HEPES,
200mM NaCl, and 5% Sypro Orange at pH 7.5, was added […]
to achieve a final volume of 20μl. Negative control wells […]
contained only DMSO, while positive control wells […]
contained peptide sub2. Fluorescence measurements of
Sypro Orange in each sample were taken using a
Quantstudio 5 or Quantstudio 6, with temperatures ranging […]
from 23 to 75°C at a rate of 0.05°C/second. Data analysis […]
involved calculating thermal stability using the Boltzmann […]
and first derivative minima equations in Thermo Scientific
Protein Thermal Shift software v1.4. The resulting data […]
were uploaded to CDD Vault for further analysis.
Library Library size 10041
Library composition The library was curated from compounds cherry picked […]
from St. Jude’s collection, representative of 80% of the […]
entire collection based on scaffold diversity (2D Molecular […]
fingerprinting based clustering) and structural properties: […]
lipophilicity (cLogP<3), size (MW 200-300 Da), and no […]
structural alerts (PAINS).
Source The compound collection was curated from multiple […]
vendors and stored on-site.
Screen Format The assay was completed in 26 384 well plates
Concentration(s) tested Compounds were tested at 100µM, and then a 16-point […]
serial dilution was performed on select compounds.
Plate controls DMSO as negative control and peptide sub2 as positive […]
Reagent/ compound dispensing system Multidrop Combi and Labcyte ECHO 655T […]
Detection instrument and software Quant Studio 5 and Quant Studio 6 and Thermo Scientific […]
Protein Thermal Shift software v1.4
Correction factors No correction factors were applied.

KLHDC2^SBD [3] = biological target: T1, KLHDC2^SBD; test: ITC, binary binding of small molecule to KLHDC2^SBD
KLHDC2^SBD / BRD3^BD2 = KLHDC2^SBD / BRD3^BD2 (Homo sapiens, UniProt Q15059+Q9Y2U9); test: ITC, ternary complex KLHDC2^SBD with PROTAC-BRD3^BD2
Sequence of KLHDC2^SBD / BRD3^BD2 (Q15059 306-416, one chain of several): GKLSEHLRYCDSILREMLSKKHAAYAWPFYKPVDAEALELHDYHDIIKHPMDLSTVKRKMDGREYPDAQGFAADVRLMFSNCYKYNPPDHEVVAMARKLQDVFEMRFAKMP

neddylated CRL2^KLHDC2 = neddylated CRL2^KLHDC2 (Homo sapiens, UniProt Q9Y2U9, G405K/S406K); test: biochemical
[4] = biological target: neddylated CRL2^KLHDC2 / BRD3^BD2 (Homo sapiens, UniProt Q15059+Q9Y2U9, Q9Y2U9:G405K/Q9Y2U9:S406K); test: biochemical
[5] = Solubility as observed in the ITC sample cell; settings: at 40 μM in the ITC sample cell
[6] = system: BD2 domain from BRD2, BRD3, or BRD4 / neddylated CRL2^KLHDC2; test: Pulse-chase PROTAC-dependent ubiquitylation of BRD BD2 domains by neddylated CRL2^KLHDC2; settings: neddylated CRL2^KLHDC2 not subject to autoinhibition; Fig 3e
[7] = cell: ligand, syringe: KLHDC2^SBD
[8] = cell: PROTAC-BRD3^BD2, syringe: KLHDC2^SBD

SMILES: COc1ccc2cc(-c3nc(CC(=O)NCC(=O)O)cs3)ccc2c1 [SJ46413]
IC50 (KLHDC2^SBD [1]): 10300 ± 200 nM
Thermal shift ΔTm (KLHDC2^SBD [2]): 3.9 ± 0.07 °C

SMILES: O=C(O)CNC(=O)Cc1csc(-c2cccc3ccccc23)n1 [SJ46415]
IC50 (KLHDC2^SBD [1]): 9800 ± 100 nM
Thermal shift ΔTm (KLHDC2^SBD [2]): 3.7 ± 0.05 °C

SMILES: Cc1sc2c(c1C)C(c1ccc(Cl)cc1)=N[C@@H](CC(=O)N1CCN(CCOc3ccc4ccc(-c5nc(CC(=O)NCC(=O)O)cs5)cc4c3)CC1)c1nnc(C)n1-2 [SJ46423]
Kd (KLHDC2^SBD [3]; ITC Kd, cell: ligand, syringe: KLHDC2^SBD): 740 nM and 737 nM
Kd (KLHDC2^SBD [3]; Kd, Rep1/Rep2, ITC source data Fig4a, syringe KLHDC2, cell PROTAC alone): 690 nM and 789 nM
ITC -TΔS (KLHDC2^SBD [3]; [7]): -5.26 +/- 0.22 kcal/mol-1
ITC stoichiometry of binding N (KLHDC2^SBD [3]; [7]): 0.4 and ~ 0.5
ITC ΔG (KLHDC2^SBD [3]; [7]): -8.61 +/- 0.04 kcal/mol-1
ITC ΔH (KLHDC2^SBD [3]; [7]): -3.35 +/- 0.11 kcal/mol-1
cooperativity α (KLHDC2^SBD / BRD3^BD2; BRD3^BD2, KLHDC2^SBD): 2.9
ITC -TΔS (ternary) (KLHDC2^SBD / BRD3^BD2; [8]): -5.26 +/- 0.18 kcal/mol-1
ITC N (ternary) (KLHDC2^SBD / BRD3^BD2; [8]): 0.4 and ~ 0.5
ITC ΔG (ternary) (KLHDC2^SBD / BRD3^BD2; [8]): -9.33 +/- 0.05 kcal/mol-1
IC50 (neddylated CRL2^KLHDC2): 15300 nM
IC50 [4]: 2200 nM
solubility [5]: solubility issues
polyubiquitylation of the BD2 domain from BRD2, BRD3, or BRD4 [6]: able to promote polyubiquitylation

SMILES: O=C(O)CNC(=O)Cc1csc(-c2ccc3c(c2)NCCO3)n1 [SJ49356]
IC50 (KLHDC2^SBD [1]): 8200 ± 300 nM
Thermal shift ΔTm (KLHDC2^SBD [2]): 1.3 ± 0.5 °C

Results, then the compound that gave them:

IC50 (KLHDC2^SBD [1]): 7100 ± 200 nM
Thermal shift ΔTm (KLHDC2^SBD [2]): 2.7 ± 0.3 °C
SMILES: O=C(O)CNC(=O)Cc1csc(-c2cccc3cccnc23)n1 [SJ46414]

IC50 (KLHDC2^SBD [1]): 1800 ± 100 nM
Thermal shift ΔTm (KLHDC2^SBD [2]): 6.0 ± 0.1 °C
SMILES: O=C(O)CNC(=O)Cc1csc(-c2ccc3ccccc3c2F)n1 [SJ46416]

IC50 (KLHDC2^SBD [1]): 1700 ± 60 nM
Thermal shift ΔTm (KLHDC2^SBD [2]): 4.3 ± 0.1 °C
SMILES: COc1ccc2ccc(-c3nc(CC(=O)NCC(=O)O)cs3)cc2c1 [SJ46417]
